Earlier results, collected in patent publication US20070232813A1, “Substituted Cyclohexadienals - Syntheses and Applications” (priority 2006, published 2007).

How the values were obtained:
Sulfitobacter sp. = settings: at 100 μg, agar diffusion assay
Roseobacter sp. = settings: at 100 μg, agar diffusion assay

CC(C)=CCCC1=CC=C(C=O)C(C)(CCC=C(C)C)C1 (centres unmarked) [citral dimer B, 6-Methyl-4,6-bis-(4-methyl-pent-3-enyl)-cyclohexa-1,3-dienecarbaldehyde]
inhibition (anti-bacterial activity against Sulfitobacter sp.) (Sulfitobacter sp.): 1.0 cm
inhibition (anti-bacterial activity against Roseobacter sp.) (Roseobacter sp.): 0.5 cm
